Columns and labels:
rNTS2 receptor = molecular target: T1, rNTS2 receptor (Rattus norvegicus, UniProt Q63384); assay: Competitive radioligand binding assay on the rNTS2 receptor; details: 1 μM macrocycle dose; read-out: NTS2 % displ at 1 μM (radiolabeled neurotensin displaced)
T1 construct: expressed in transfected cells; host or cells: DRG-F11 cells, transient transfection, membranes
T1 sequence (Q63384 1-416): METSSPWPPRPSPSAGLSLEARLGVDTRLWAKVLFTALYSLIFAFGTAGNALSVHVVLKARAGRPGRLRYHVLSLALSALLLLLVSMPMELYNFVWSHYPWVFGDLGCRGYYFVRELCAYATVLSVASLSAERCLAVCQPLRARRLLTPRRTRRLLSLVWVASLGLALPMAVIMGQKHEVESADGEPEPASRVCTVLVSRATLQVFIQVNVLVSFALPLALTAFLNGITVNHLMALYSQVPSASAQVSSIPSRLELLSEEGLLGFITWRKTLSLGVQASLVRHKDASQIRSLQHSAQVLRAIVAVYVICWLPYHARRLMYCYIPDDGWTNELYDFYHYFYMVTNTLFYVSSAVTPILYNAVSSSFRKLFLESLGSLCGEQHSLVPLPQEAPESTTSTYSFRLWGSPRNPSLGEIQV
Protocol: DRG-F11 cells were cultured in DMEM supplemented with 10% FBS, 100 U/mL penicillin, 100 μg/mL streptomycin, and 20 mM HEPES.
Membranes were prepared by scraping cells off the culture dish with 50 mM Tris ph 7.5 and centrifuged at 15,000 g for 5 min at 4° C. The pellet was resuspended in 10 mM Tris, 1 mM EDTA pH 7.5 and sonicated for 30 s prior to be centrifugated at 15,000 g for 30 min at 4° C. The pellet was then re-suspended in binding 9 buffer. […] All other steps in binding experiments were unchanged comparing to the one using the NTS1 receptor.

hNTS1 (Gαq pathway) = molecular target: T2, hNTS1 (Gαq pathway) (Homo sapiens, UniProt P30989); assay: BRET biosensor assay, Gαq dissociation; type: cell-based
T2 construct: expressed in transfected cells; host or cells: CHO-K1, transient transfection with PEI
T2 sequence (P30989 whole entry): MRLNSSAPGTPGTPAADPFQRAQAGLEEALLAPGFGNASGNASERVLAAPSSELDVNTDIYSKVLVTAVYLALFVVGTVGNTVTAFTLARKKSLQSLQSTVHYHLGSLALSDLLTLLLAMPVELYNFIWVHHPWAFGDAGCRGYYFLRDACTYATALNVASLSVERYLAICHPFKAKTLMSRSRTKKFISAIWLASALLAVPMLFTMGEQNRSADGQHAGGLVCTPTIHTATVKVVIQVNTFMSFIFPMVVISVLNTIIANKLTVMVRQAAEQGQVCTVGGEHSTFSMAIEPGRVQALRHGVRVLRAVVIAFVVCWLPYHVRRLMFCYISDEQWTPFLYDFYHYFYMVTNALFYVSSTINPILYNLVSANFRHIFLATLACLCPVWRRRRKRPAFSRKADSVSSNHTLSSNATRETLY
Protocol: CHO-K1 cells were cultured in DMEM-F12 supplemented with 10% FBS, 100 U/mL penicillin, 100 μg/mL streptomycin, and 20 mM HEPES at 37° C. in a humidified chamber at 5% CO2. Cells were seeded into T75 flasks at a density of 20 000 cells/cm^2; 24 h later, cells were transfected with plasmids coding for hNTS1-Green fluorescent protein 10(GFP10)/Rluc (Renilla Luciferase)II-β-arrestin 1 or hNTS1-GFP10/RlucII-β-arrestin2, or with hNTS1/Gαq-RlucII/Gβ1/IGFP10-Gγ1 or hNTS1/Gα13-RlucII/Gβ1/GFP10-Gγ1 using polyethylenimine (PEI). Cells were transferred into 96-well plates at a concentration of 50 000 cells/well 24 h after transfection and incubated at 37° C. overnight. […] After stimulation, coelenterazine 400A was added in each well to a final concentration of 5 μM and the plate was read using filter selected for BRET2 measurement (BRET2 High efficiency filter set, λemRlucII: 410±80 nm, λemGFP10: 515±40 nm) on a Mithras 2 plate reader (Berthold Technologies, Tennessee, USA). BRET2 ratio was determined as GFP10em/RlucIIem. […] EC50 (Effective Concentration 50) values were determined using the dose response-stimulation log(agonist) vs response (three parameters) and represent the mean±SEM of at least three separate experiments, each performed in triplicate.
NTS1 is capable of activating several signaling pathways, thus the activation of Gαq, Gα13, β-arrestin 1 and β-arrestin 2 pathways was monitored. […]

[1] = molecular target: T3, hNTS1 (β-arrestin 2 recruitment) (Homo sapiens, UniProt P30989); assay: BRET biosensor assay, β-arrestin 2 recruitment; type: cell-based
T3 construct: expressed in transfected cells; host or cells: CHO-K1, transient transfection with PEI
T3 sequence (P30989 whole entry): as above
T3 sequence (P32121 whole entry partner): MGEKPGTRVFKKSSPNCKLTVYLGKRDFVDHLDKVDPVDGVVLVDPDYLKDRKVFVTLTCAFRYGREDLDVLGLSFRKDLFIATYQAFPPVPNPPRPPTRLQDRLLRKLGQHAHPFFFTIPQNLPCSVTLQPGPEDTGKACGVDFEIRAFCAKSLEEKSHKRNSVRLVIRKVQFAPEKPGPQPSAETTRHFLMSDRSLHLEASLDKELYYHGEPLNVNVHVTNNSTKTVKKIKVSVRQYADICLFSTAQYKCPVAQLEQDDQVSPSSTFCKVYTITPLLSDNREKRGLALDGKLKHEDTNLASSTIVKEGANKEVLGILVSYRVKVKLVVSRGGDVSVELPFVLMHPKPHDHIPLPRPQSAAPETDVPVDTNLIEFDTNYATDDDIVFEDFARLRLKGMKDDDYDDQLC
Protocol: CHO-K1 cells were cultured in DMEM-F12 supplemented with 10% FBS, 100 U/mL penicillin, 100 μg/mL streptomycin, and 20 mM HEPES at 37° C. in a humidified chamber at 5% CO2. Cells were seeded into T75 flasks at a density of 20 000 cells/cm^2; 24 h later, cells were transfected with plasmids coding for hNTS1-Green fluorescent protein 10(GFP10)/Rluc (Renilla Luciferase)II-β-arrestin 1 or hNTS1-GFP10/RlucII-β-arrestin2, or with hNTS1/Gαq-RlucII/Gβ1/IGFP10-Gγ1 or hNTS1/Gα13-RlucII/Gβ1/GFP10-Gγ1 using polyethylenimine (PEI). Cells were transferred into 96-well plates at a concentration of 50 000 cells/well 24 h after transfection and incubated at 37° C. overnight. They were then washed with PBS and 90 μL HBSS was added in each well. […] After stimulation, coelenterazine 400A was added in each well to a final concentration of 5 μM and the plate was read using filter selected for BRET2 measurement (BRET2 High efficiency filter set, λemRlucII: 410±80 nm, λemGFP10: 515±40 nm) on a Mithras 2 plate reader (Berthold Technologies, Tennessee, USA). BRET2 ratio was determined as GFP10em/RlucIIem. […] EC50 (Effective Concentration 50) values were determined using the dose response-stimulation log(agonist) vs response (three parameters) and represent the mean±SEM of at least three separate experiments, each performed in triplicate.
NTS1 is capable of activating several signaling pathways, thus the activation of Gαq, Gα13, β-arrestin 1 and β-arrestin 2 pathways was monitored. The ability of compounds of the invention to activate the NTS1 receptor was assessed using Bioluminescence Resonance Energy Transfer (BRET)-based biosensors, reporting the dissociation of G proteins (Table III, column EC50 Gq) and the recruitment of β-arrestins to the receptor (Table III, column EC50 βarr).

Plasma stability assay = type: in vitro ADME; details: rat plasma at 37° C.
Protocol: Rat plasma was obtained by centrifugation of rat blood (13000 rpm, 5 min, 4° C.). […] Proteolytic degradation was quenched by adding 70 μL of acetonitrile/ethanol (1:1), 0.5% nicotinamide solution and vortexing. […] Data were analyzed using GraphPad Prism 7's one phase decay equation.

Sprague-Dawley rats [2] = assay: Tail-flick test (acute pain); type: in vivo; details: rat
Protocol: (§1) Experiments were performed with adult male Sprague-Dawley rats, weighing 225-300 g (Charles River laboratories, St-Constant, Canada). Rats were housed two per cage on Aspen shavings in a quiet room and kept on a 12 h light/dark cycle and allowed ad libitum access to food and water. The experimental procedures in this study were approved by the Animal Care Committee of Université de Sherbrooke (animal care protocol 035-13) and were in accordance with policies and directives of the Canadian Council on Animal Care.
Acute pain was assessed using the tail-flick test (Tail-Flick Analgesia meter V2.00, Colombus Instruments, Columbus, Ohio, USA). Tail-flick test measures sensitivity to a high-intensity light beam focused on the rat tail. The tail-flick apparatus was set at a light intensity of 6 and a cutoff of 10 sec. The latency, in seconds, to flick the tail out of the path of the light beam corresponds to the measure of pain sensitivity or analgesia.
Before testing, animals were individually acclimatized to manipulations and behavioral apparatus 5 min/day for three consecutive days. On the test day, latencies baseline measures were taken before drug injection to provide a mean baseline. […] The effects of compounds or saline on thermal nociception were assessed every 10 min for up to 60 min following i.t. administration.
Tail-flick latencies were converted into the percent maximal possible effect (% MPE) at the time of maxima peak of analgesia. % MPE were calculated according to the following formula: % MPE=[(Test latency)−(Saline latency)]/[(Cutoff)−(Saline latency)]×100. Data are expressed as mean±SEM of 3-8 animals for each different compound.
(§2) Data are expressed as mean±standard errors of the mean (SEM). All graphs and statistical analysis were performed using GraphPad Prism™ 7 (GraphPad software, La Jolla, Calif., USA). […] A difference in response was considered significant with p-values *p<0.05, **p<0.01, and ***p<0.001. […] Then, ED values were determined using the dose-response-stimulation log(agonist) vs response (three parameters).

Sprague-Dawley rats [3] = assay: Formalin test (tonic pain); type: in vivo; details: rat, i.t., 30 μg/kg
Protocol: as §1
5 min after intrathecal injection of compounds at 30 μg/kg, the rats received 50 μl of diluted 2% formaldehyde (i.e. 5% formalin; Bioshop, Burlington, Ontario) into the plantar surface of the right hind paw. […] Nociceptive behaviors were assessed using a weighted score as described previously. […] The weighted average pain intensity score ranging from 0 to 3 was then calculated by multiplying the time spent in each category by the category weight, summing these products, and dividing by the total time in a given time interval. The pain score was thus calculated from the following formula (1T1+2T2+3T3)/180 where T1, T2, and T3 are the durations (in seconds) spent in behavioral categories 1, 2, or 3, respectively, during each 180-sec block. […]
Data are expressed as mean±standard errors of the mean (SEM). […]

Sprague-Dawley rats [4] = assay: Body temperature (hypothermia); type: in vivo; details: rat; text says i.v., figure legend and method i.t.
Protocol: Body temperature was measured using a thermistor probe inserted into the rectum of adult Sprague-Dawley rats. Prior to testing, animals were individually acclimatized to manipulations and thermistor probe 5 min/day for three consecutive days. On the test day, temperature was measured before (baseline) and each 10 min for up to 60 min following intrathecal drug administration of compounds. […] Changes in body temperature (Δ body temp) were determined from baseline for each time and each animal. Data represent the mean±SEM of 3-16 rats for each condition.
as §2

rats = assay: Blood pressure (hypotension); type: in vivo, rat; details: 0.01 mg/kg
Protocol: Mean, systolic and diastolic arterial blood pressure and a heart rate were measured through a catheter (PE 50 filled with heparinized saline) inserted in the right carotid artery and connected to a Micro-Med™ transducer (model TDX-300, USA) linked to a blood pressure Micro-Med™ analyzer (model BPA-100c). Another catheter (PE 10 filled with heparinized saline) was inserted in the left jugular vein for injection of test compounds at 0.01 mg/kg (volume 1 mL/kg, 5-10 s) or 0.9% saline. Blood pressure was recorded each second for up to 900 seconds following intravenous injection.

## CCC(C)[C@H](NC(=O)[C@@H]1Cc2ccc(O)c(c2)CC=CCNCCC[C@H](N)C(=O)N[C@@H](CCCCN)C(=O)N2CCC[C@H]2C(=O)N1)C(=O)N[C@@H](CC(C)C)C(=O)O (some centres unmarked) [Compound 7, c[Orn(All)KPY(All)]IL]
rNTS2 receptor
  inhibition at 1 µM: 66%
hNTS1 (Gαq pathway)
  EC50: 3 ± 0.05 nM
[1]
  EC50: 3 ± 0.05 nM
Plasma stability assay
  half-life at […]: 30 min
Sprague-Dawley rats [2]; i.t. injection
  ED50, tail-flick latency (from AUC): 4.63 µg/kg
Sprague-Dawley rats [2]; i.t., 30 μg/kg, 10 min post-injection
  Maximal possible effect (MPE): 50%
Sprague-Dawley rats [2]; i.t., tail-flick
  Dose at which the analgesic effect reached a plateau: around 10 μg/kg
Sprague-Dawley rats [2]; intrathecal, 30 μg/kg
  Tail-flick latency versus saline/baseline: sustainably increased
Sprague-Dawley rats [3]
  Pain score during the inflammatory phase (AUC): significantly reduced
Sprague-Dawley rats [4]
  ED50, hypothermia (from AUC): 1.96 μ/kg
rats
  Hypotension (I.V.): Triphasique
rats; rat, i.v.
  Arterial blood pressure response: triphasic
  Blood pressure drop, first phase: about −25 mmHg
  Blood pressure in phase 3: slowly returned towards baseline
